This note sets out measurements from patent US20240425524A1, “SPIROTRICYCLE RIPK1 INHIBITORS AND METHODS OF USES THEREOF” (Merck Sharp & Dohme LLC, priority 2021, published 2024).

One may read the EC50 as the concentration needed to bring the measured effect to its halfway point.

Sequence of RIPK1 (Q13546 1-327): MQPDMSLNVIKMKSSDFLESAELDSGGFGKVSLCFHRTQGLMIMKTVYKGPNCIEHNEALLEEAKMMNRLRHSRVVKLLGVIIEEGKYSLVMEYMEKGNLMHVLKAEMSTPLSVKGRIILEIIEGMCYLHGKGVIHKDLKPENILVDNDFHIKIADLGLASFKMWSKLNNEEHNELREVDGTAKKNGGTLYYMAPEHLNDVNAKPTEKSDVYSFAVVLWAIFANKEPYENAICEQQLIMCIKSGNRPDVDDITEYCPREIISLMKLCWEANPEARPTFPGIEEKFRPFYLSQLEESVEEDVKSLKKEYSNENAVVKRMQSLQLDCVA

The assay deals with RIPK1 (Homo sapiens (Human), UniProt Q13546). Description: RIPK1-ADP-Glo Enzymatic Assay. As to conditions: recombinant GST-RIPK1 kinase domain (residues 1-327), 25 nM, ten-point titration, 30 minutes pre-incubation. In kind it is biochemical. In outline:
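GST-RIPK1 kinase domain (residues 1-327, Sf21-expressed; 25 nM final) was pre-incubated 30 min at ambient temperature with compound (10-point 1:3 series from 100000 nM, 1% DMSO) in HEPES pH 7.3 buffer with 20 mM MgCl2. The reaction was started with 900 μM ATP (addition solution) and 3 μM dephosphorylated MBP and ran 150 min. Read-out was ADP-Glo luminescence, with EC50 from a four-parameter fit.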
For orientation: ADP-Glo first removes unused ATP, then detects ADP through luciferase.
With `O=C1N2[C@H](c3cc(F)cc(F)c3)CCN2CC12CCN(c1ncc(F)cc1C(F)F)CC2` [Example 2.9, (S)-1-(3-(difluoromethyl)-5-fluoropyridin-2-y1)-7′-(3,5-difluorophenyl)dihydro-l′H,3′H,5′H-spiro[piperidine-4,2′-pyrazolo[1,2-a]pyrazol]-1′-one], the EC50 amounted to 792 nM.
With `O=C1N2[C@H](c3cc(F)cc(F)c3)CCN2CC12CCN(c1ccnc3ccnn13)CC2` [Example 2.10, (S)-7′-(3,5-difluorophenyl)-1-(pyrazolo[1,5-a]pyrimidin-7-yl)dihydro-1′H,3′H,5′H-spiro[piperidine-4,2′-pyrazolo[1,2-a]pyrazol]-1′-one], the EC50 turned out to be 33 nM.
In the case of `O=C1N2[C@H](c3cc(F)cc(F)c3)CCN2CC12CCN(c1nccn3nccc13)CC2` [Example 2.11, (S)-7′-(3,5-difluorophenyl)-1-(pyrazolo[1,5-a]pyrazin-4-y1)dihydro-l′H,3′H,5′H-spiro[piperidine-4,2′-pyrazolo[1,2-a]pyrazol]-1′-one], the EC50 worked out at 34 nM.
For `O=C1N2[C@H](c3cc(F)cc(F)c3)CCN2CC12CCN(c1cccc(-n3nccc3C(F)(F)F)n1)CC2` [Example 2.12, (S)-7′-(3,5-difluorophenyl)-1-(6-(5-(trifluoromethyl)-1H-pyrazol-1-y1)pyridin-2-yl)dihydro-l′H,3′H,5′H-spiro[piperidine-4,2′-pyrazolo[1,2-a]pyrazol]-1′-one], the EC50 came out at 6 nM.
Take `Cc1ccn(-c2cccc(N3CCC4(CC3)CN3CC[C@@H](c5cc(F)cc(F)c5)N3C4=O)n2)n1` [Example 2.13, (S)-7′-(3,5-difluorophenyl)-1-(6-(3-methyl-1H-pyrazol-1-yl)pyridin-2-yl)dihydro-1′H,3′H,5′H-spiro[piperidine-4,2′-pyrazolo[1,2-a]pyrazol]-1′-one]: the concentration giving a half-maximal response (EC50) worked out at 17 nM.
As to `Cc1cnn(-c2cnc(N3CCC4(CC3)CN3CC[C@@H](c5cc(F)cc(F)c5)N3C4=O)cn2)c1` [Example 2.15, (S)-7′-(3,5-difluorophenyl)-1-(5-(4-methyl-1H-pyrazol-1-yl)pyrazin-2-yl)dihydro-l′H,3′H,5′H-spiro[piperidine-4,2′-pyrazolo[1,2-a]pyrazol]-1′-one], the EC50 worked out at 80 nM.
As for `O=C1N2[C@H](c3cc(F)cc(F)c3)CCN2CC12CCN(c1cnc(-c3ccccc3Cl)cn1)CC2` [Example 2.16, (S)-1-(5-(2-chlorophenyl)pyrazin-2-y1)-7′-(3,5-difluorophenyl)dihydro-1′H,3′H,5′H-spiro[piperidine-4,2′-pyrazolo[1,2-a]pyrazol]-1′-one], the EC50 turned out to be 25 nM.
On to `O=C1N2[C@H](c3cc(F)cc(F)c3)CCN2CC12CCN(c1cnc(-c3cccc(Cl)c3)cn1)CC2` [Example 2.17, (S)-1-(5-(3-chlorophenyl)pyrazin-2-yl)-7′-(3,5-difluorophenyl)dihydro-1′H,3′H,5′H-spiro[piperidine-4,2′-pyrazolo[1,2-a]pyrazol]-1′-one], for which the EC50 stood at 96 nM.
Regarding `O=C1N2[C@H](c3cc(F)cc(F)c3)CCN2CC12CCN(c1cnc(-c3ccc(Cl)cc3)cn1)CC2` [Example 2.18, (S)-1-(5-(4-chlorophenyl)pyrazin-2-y1)-7′-(3,5-difluorophenyl)dihydro-1′H,3′H,5′H-spiro[piperidine-4,2′-pyrazolo[1,2-a]pyrazol]-1′-one], the EC50 worked out at 152 nM.
Consider `N#Cc1cnc(N2CCC3(CC2)CN2CC[C@@H](c4cc(F)cc(F)c4)N2C3=O)cn1` [Example 2.19, (S)-5-(7′-(3,5-difluorophenyl)-1′-oxodihydro-l′H,3′H,5′H-spiro[piperidine-4,2′-pyrazolo[1,2-a]pyrazol]-1-y1)pyrazine-2-carbonitrile], for which the EC50 worked out at 27 nM.
On to `CSc1cnc(N2CCC3(CC2)CN2CC[C@@H](c4cc(F)cc(F)c4)N2C3=O)cn1` [Example 2.20, (S)-7′-(3,5-difluorophenyl)-1-(5-(methylthio)pyrazin-2-yl)dihydro-l′H,3′H,5′H-spiro[piperidine-4,2′-pyrazolo[1,2-a]pyrazol]-1′-one], for which the EC50 was determined as 30 nM.
For the compound `O=C1N2[C@H](c3cc(F)cc(F)c3)CCN2CC12CCN(c1ccc(OC(F)F)cn1)CC2` [Example 2.21, (S)-1-(5-(difluoromethoxy)pyridin-2-y1)-7′-(3,5-difluorophenyl)dihydro-1′H,3′H,5′H-spiro[piperidine-4,2′-pyrazolo[1,2-a]pyrazol]-1′-one], the EC50 worked out at 28 nM.
The same measure for `O=C1N2[C@H](c3cc(F)cc(F)c3)CCN2CC12CCN(c1cc(-c3ccco3)ccn1)CC2` [Example 2.22, (S)-7′-(3,5-difluorophenyl)-1-(4-(furan-2-y1)pyridin-2-yl)dihydro-1′H,3′H,5′H-spiro[piperidine-4,2′-pyrazolo[1,2-a]pyrazol]-1′-one]: 132 nM; for `Cc1cc(-c2cncs2)nc(N2CCC3(CC2)CN2CC[C@@H](c4cc(F)cc(F)c4)N2C3=O)c1` [Example 2.23, (S)-7′-(3,5-difluorophenyl)-1-(4-methyl-6-(thiazol-5-yl)pyridin-2-yl)dihydro-1′H,3′H,5′H-spiro[piperidine-4,2′-pyrazolo[1,2-a]pyrazol]-1′-one]: 48 nM.
In the case of `CCCOc1ccnc(N2CCC3(CC2)CN2CC[C@@H](c4cc(F)cc(F)c4)N2C3=O)c1` [Example 2.24, (S)-7′-(3,5-difluorophenyl)-1-(4-propoxypyridin-2-yl)dihydro-l′H,3′H,5′H-spiro[piperidine-4,2′-pyrazolo[1,2-a]pyrazol]-1′-one], the EC50 is 907 nM.
In the case of `O=C1N2[C@H](c3cc(F)cc(F)c3)CCN2CC12CCN(c1cc(-n3ccnc3)ccn1)CC2` [Example 2.25, (S)-1-(4-(1H-imidazol-1-yl)pyridin-2-y1)-7′-(3,5-difluorophenyl)dihydro-1′H,3′H,5′H-spiro[piperidine-4,2′-pyrazolo[1,2-a]pyrazol]-1′-one], the EC50 was determined as 50 nM.
In the case of `Cc1cnn(-c2ccnc(N3CCC4(CC3)CN3CC[C@@H](c5cc(F)cc(F)c5)N3C4=O)c2)c1` [Example 2.26, (S)-7′-(3,5-difluorophenyl)-1-(4-(4-methyl-1H-pyrazol-1-yl)pyridin-2-yl)dihydro-1′H,3′H,5′H-spiro[piperidine-4,2′-pyrazolo[1,2-a]pyrazol]-1′-one], the EC50 worked out at 98 nM.
The same measure for `O=C1N2[C@H](c3cc(F)cc(F)c3)CCN2CC12CCN(c1ncnc3scnc13)CC2` [Example 3.1]: 24 nM; for `CCn1cnc2c(N3CCC4(CC3)CN3CC[C@@H](c5cc(F)cc(F)c5)N3C4=O)ncnc21` [Example 3.2, (S)-7′-(3,5-difluorophenyl)-1-(9-ethyl-9H-purin-6-yl)dihydro-l′H,3′H,5′H-spiro[piperidine-4,2′-pyrazolo[1,2-a]pyrazol]-1′-one]: 765 nM; for `O=C1N2[C@H](c3cc(F)cc(F)c3)CCN2CC12CCN(c1ncnc3scnc13)CC2` [Example 3.3, (S)-7′-(3,5-difluorophenyl)-1-(thiazolo[5,4-d]pyrimidin-7-yl)dihydro-1′H,3′H,5′H-spiro[piperidine-4,2′-pyrazolo[1,2-a]pyrazol]-1′-one]: 14 nM.
Regarding `O=C(c1cnccn1)N1CCC2(CC1)CN1CC[C@@H](c3cc(F)cc(F)c3)N1C2=O` [Example 4.1, (S)-7′-(3,5-difluorophenyl)-1-(pyrazine-2-carbonyl) dihydro-1′H,3′H,5′H-spiro [piperidine-4,2′-pyrazolo[1,2-a]pyrazol]-1′-one], the EC50 came out at 50 nM.
For the compound `O=C(c1ncccn1)N1CCC2(CC1)CN1CC[C@@H](c3cc(F)cc(F)c3)N1C2=O` [Example 4.2, (S)-7′-(3,5-difluorophenyl)-1-(pyrimidine-2-carbonyl)dihydro-1′H,3′H,5′H-spiro[piperidine-4,2′-pyrazolo[1,2-a]pyrazol]-l′-one], the EC50 stood at 434 nM.
Take `Cc1ccc(C(=O)N2CCC3(CC2)CN2CC[C@@H](c4cc(F)cc(F)c4)N2C3=O)cc1` [Example 4.3, (S)-7′-(3,5-difluorophenyl)-1-(4-methylbenzoyl)dihydro-1′H,3′H,5′H-spiro[piperidine-4,2′-pyrazolo[1,2-a]pyrazol]-l′-one]: the EC50 stood at 38 nM.
Turning to `O=C(c1cccnc1)N1CCC2(CC1)CN1CC[C@@H](c3cc(F)cc(F)c3)N1C2=O` [Example 4.4, (S)-7′-(3,5-difluorophenyl)-1-nicotinoyldihydro-1′H,3′H,5′H-spiro[piperidine-4,2′-pyrazolo[1,2-a]pyrazol]-l′-one], the EC50 came out at 209 nM.
Take `O=C(c1ccncc1)N1CCC2(CC1)CN1CC[C@@H](c3cc(F)cc(F)c3)N1C2=O` [Example 4.5, (S)-7′-(3,5-difluorophenyl)-1-isonicotinoyldihydro-1′H,3′H,5′H-spiro[piperidine-4,2′-pyrazolo[1,2-a]pyrazol]-l′-one]: the EC50 came to 414 nM.
As for `Cn1ccc(C(=O)N2CCC3(CC2)CN2CC[C@@H](c4cc(F)cc(F)c4)N2C3=O)n1` [Example 4.6, (S)-7′-(3,5-difluorophenyl)-1-(1-methyl-1H-pyrazole-3-carbonyl)dihydro-1′H,3′H,5′H-spiro[piperidine-4,2′-pyrazolo[1,2-a]pyrazol]-l′-one], the EC50 amounted to 594 nM.
As to `N#Cc1cc(F)cc(C(=O)N2CCC3(CC2)CN2CC[C@@H](c4cc(F)cc(F)c4)N2C3=O)c1` [Example 4.7, (S)-3-(7′-(3,5-difluorophenyl)-1′-oxodihydro-1′H,3′H,5′H-spiro[piperidine-4,2′-pyrazolo[1,2-a]pyrazole]-1-carbonyl)-5-fluorobenzonitrile], the EC50 came out at 211 nM.
Consider `Cc1c(F)cccc1C(=O)N1CCC2(CC1)CN1CC[C@@H](c3cc(F)cc(F)c3)N1C2=O` [Example 4.8, (S)-7′-(3,5-difluorophenyl)-1-(3-fluoro-2-methylbenzoyl)dihydro-1′H,3′H,5′H-spiro[piperidine-4,2′-pyrazolo[1,2-a]pyrazol]-l′-one], for which the EC50 is 158 nM.
